According to ChEMBL document CHEMBL1158931, “Pseudosemiglabrin, a platelet aggregation inhibitor from tephrosia semiglabra” (J Nat Prod, 1990):
The source made the active and inactive calls. The rule behind the calls is not given here.

Tests used:
[1] = Antiplatelet aggregatory activity against U46619-induced human platelet aggregation at 45 ug/ml by turbidimetric method; assay type: functional
Platelet [2] = test: Antiplatelet aggregatory activity against adenosine diphosphate-induced human platelet aggregation at 44 ug/ml by turbidimetric method; assay type: functional, cell-based
[3] = Antiplatelet aggregatory activity against U46619-induced human platelet aggregation by turbidimetric method; assay type: functional, cell-based
Platelet [4] = test: Antiplatelet aggregatory activity against adenosine diphosphate-induced human platelet aggregation at 13 ug/ml by turbidimetric method; assay type: functional, cell-based
[5] = Antiplatelet aggregatory activity against U46619-induced human platelet aggregation at 6.5 ug/ml by turbidimetric method; assay type: functional

IC50 [3] [µM] | SMILES | Activity [1] [%] | Activity (Platelet [2]) | Activity (Platelet [4]) | Activity [5] [%]
– | CC(=O)O[C@H]1[C@@H]2c3c(ccc4c(=O)cc(-c5ccccc5)oc34)O[C@@H]2OC1(C)C | 70 | inactive | – | –
12.5 | CC(=O)O[C@H]1[C@H]2c3c(ccc4c(=O)cc(-c5ccccc5)oc34)O[C@H]2OC1(C)C | – | – | inactive | 85
